Reference: ChEMBL document CHEMBL1201862, “PubChem BioAssay data set” (2004)
Activity calls are given as the source filed them.

Tests used:
Trypsin = Trypsin (Sus scrofa, UniProt P00761); test: porcine trypsin inhibitors, dose response, selectivity assay for Rce1 protease inhibitor project, biochemical, quenched peptide fluorescence, cherry-pick (AID 488789)
CAAX prenyl protease 2 = CAAX prenyl protease 2 (Homo sapiens, UniProt Q9Y256); test: human Rce1 protease inhibitors, dose response, biochemical, yeast membranes, quenched-peptide fluorescence, cherry-pick (AID 588849)
[1] = inhibitors of intracellular T. cruzi replication, confirmation, NIH3T3 host cells, beta-gal luminescence (AID 2044); format: functional, cell-based;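 also: intracellular parasites grown in NIH/3T3 mouse fibroblasts as host cells; luminescent beta-galactosidase reporter signal from transgenic T. cruzi replicating inside host cells; inhibitors lower the luminescence signal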
[2] = cytotoxicity toward NIH3T3 fibroblasts, dose response, counter-screen, cell-based, ATP luminescence, mouse fibroblasts (AID 2010); format: functional;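 also: cells exposed to compound for about 90 hours before reading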
Escherichia coli [3] = test: microbe, parasite or virus in culture
Escherichia coli [4] = test: microbe, parasite or virus in culture; remark: listed apart in the source
[5] = HEp-2 cell cytotoxicity, dose response, cytotoxicity control for RSV inhibitor project, HTS (AID 2410); format: functional; conditions: human respiratory syncytial virus
[6] = THP-1 cell cytotoxicity, dose response, cytotoxicity control for non-replicating M. tuberculosis project (AID 489025); format: functional
[7] = HepG2 cell cytotoxicity, dose response, cytotoxicity control for non-replicating M. tuberculosis project (AID 489018); format: functional; conditions: Mycobacterium tuberculosis
[8] = Vero E6 cell cytotoxicity, dose response, cytotoxicity control for non-replicating M. tuberculosis project, secondary assay (AID 492998); format: functional, VeroE6; conditions: Vero C1008
cells = format: functional
Insulin-degrading enzyme [9] = biological target: T1, Insulin-degrading enzyme (Homo sapiens, UniProt P14735); test: activators of recombinant IDE enzyme, dose response, counter-screen for IDE activator project, biochemical, fluorescence polarization (AID 588681)
T1 sequence (P14735 whole entry): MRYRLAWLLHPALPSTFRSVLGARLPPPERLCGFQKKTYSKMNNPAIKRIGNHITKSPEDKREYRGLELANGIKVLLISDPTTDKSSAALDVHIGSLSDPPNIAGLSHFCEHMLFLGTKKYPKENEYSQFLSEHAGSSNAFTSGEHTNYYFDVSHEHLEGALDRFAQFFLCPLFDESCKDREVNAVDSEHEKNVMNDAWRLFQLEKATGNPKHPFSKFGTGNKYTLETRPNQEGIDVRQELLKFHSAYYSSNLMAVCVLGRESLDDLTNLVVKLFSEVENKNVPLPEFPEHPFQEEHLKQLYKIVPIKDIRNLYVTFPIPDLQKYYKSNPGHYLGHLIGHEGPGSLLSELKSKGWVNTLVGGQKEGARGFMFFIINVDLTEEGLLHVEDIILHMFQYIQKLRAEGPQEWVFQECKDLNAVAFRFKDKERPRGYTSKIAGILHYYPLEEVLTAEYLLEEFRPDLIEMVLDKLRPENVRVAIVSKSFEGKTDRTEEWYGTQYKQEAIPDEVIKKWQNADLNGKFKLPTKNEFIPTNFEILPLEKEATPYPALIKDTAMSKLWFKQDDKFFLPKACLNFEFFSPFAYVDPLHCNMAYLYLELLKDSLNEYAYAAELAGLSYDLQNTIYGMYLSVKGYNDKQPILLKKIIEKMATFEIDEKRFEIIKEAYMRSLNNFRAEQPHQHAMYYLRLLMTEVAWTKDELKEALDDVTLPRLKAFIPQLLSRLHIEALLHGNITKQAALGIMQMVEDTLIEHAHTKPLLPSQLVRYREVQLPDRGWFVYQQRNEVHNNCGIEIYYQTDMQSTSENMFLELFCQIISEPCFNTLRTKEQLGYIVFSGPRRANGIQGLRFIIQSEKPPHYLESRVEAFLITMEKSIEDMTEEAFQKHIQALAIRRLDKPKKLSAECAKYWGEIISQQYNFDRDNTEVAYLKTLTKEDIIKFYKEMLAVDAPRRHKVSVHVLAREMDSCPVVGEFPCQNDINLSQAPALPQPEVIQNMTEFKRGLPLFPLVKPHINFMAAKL

Insulin-degrading enzyme [10] = biological target: T1, Insulin-degrading enzyme; test: activators of endogenous IDE in HEK cells, dose response, cell-based, fluorescence polarization (AID 588439); format: functional
HEK293 [11] = test: HEK cell cytotoxicity by LDH release, dose response, cytotoxicity control for IDE activator project, fluorescence, HEK cells (AID 588440); format: functional, cell-based; conditions: Homo sapiens;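 also: cytotoxicity by LDH release measuring loss of membrane integrity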
HEK293 [12] = test: optical interference in Abeta FP readout, dose response, artefact control for IDE activator project, biochemical, fluorescence polarization (AID 588442); format: functional, cell-based; conditions: Homo sapiens
A-375 = test: A375 melanoma cell viability reduction, dose response, counter-screen for MITF modulator project, cherry-pick samples, set 2 (AID 540335); format: functional, cell-based; conditions: Homo sapiens
[13] = inhibitors of firefly luciferase expression or activity, dose response, H4 neuroglioma cells, luminescence (AID 1990); format: functional, cell-based
[14] = Luminescence Cell-Based Dose Response HTS to Identify Inhibitors of 5'UTR Stem-Loop Driven Prion Protein mRNA Translation in H4 Neuroglioblastoma Cells. [Related pubchem assays: 1827 (Project Summary), 1813 (Primary HTS)]; format: functional
[15] = inhibitors of SNCA 5'UTR-driven reporter translation, confirmation, H4 neuroglioma cells, luminescence (AID 1988); format: functional, cell-based
[16] = Luminescence Cell-Based Dose Retest to Confirm Inhibitors of Cancer Stem Cells. [Related pubchem assays (depositor defined):AID2717, AID2721]; format: functional; conditions: Homo sapiens
[17] = biological target: Delta-type opioid receptor (Homo sapiens, UniProt P41143); test: Counterscreen for agonists of heterodimerization of the mu 1 (OPRM1) and delta 1 (OPRD1) opioid receptors: Luminescence-based cell-based high throughput dose response assay to identify agonists of OPRD1 homodimerization. [Related pubchem assays (depositor defined):AID504326, AID504355, AID504692, AID504904, AID504905]; format: functional
Mu-type opioid receptor = Mu-type opioid receptor (Homo sapiens, UniProt P35372); test: Counterscreen for agonists of heterodimerization of the mu 1 (OPRM1) and delta 1 (OPRD1) opioid receptors: Luminescence-based cell-based high throughput dose response assay to identify agonists of OPRM1 homodimerization.; format: functional;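 also: U2OS cells expressing OPRM1 and beta-arrestin as split beta-galactosidase partners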
[18] = biological target: 5-hydroxytryptamine receptor 5A (Homo sapiens, UniProt P47898); test: Counterscreen for agonists of OPRM1-OPRD1 heterodimerization: luminescence-based cell-based high throughput dose response assay to identify agonists of 5-hydroxytryptamine (serotonin) 5A receptor (HTR5A). [Related pubchem assays (depositor defined):AID504326, AID504355, AID504692, AID504904, AID504905]; format: functional
INS1 = test: beta cell apoptosis inhibitors, cytokine rescue, dose response, luminescence, retest (AID 449756); format: functional, cell-based; conditions: Rattus norvegicus;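 also: cell death triggered by IL-1 beta plus TNF-alpha plus IFN-gamma mixture; protective hits raise ATP signal compared with cytokine alone wells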
[19] = A549 cell cytotoxicity, dose response, cytotoxicity control, plate reader, cherry-pick, antagonist series (AID 743412); format: functional, cell-based
[20] = HepG2 cell cytotoxicity, dose response, cytotoxicity control, plate reader, cherry-pick, antagonist series (AID 743416); format: functional, cell-based
[21] = LGR2 antagonists, dose response, cell-based, HEK293, CRE-luciferase reporter, cherry pick, set 2 (AID 743343); format: functional;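 also: transfected cells were stimulated with diluted bursicon conditioned medium after compound addition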
[22] = MC4R antagonists, dose response, counter-screen for LGR2 antagonist project, cell-based, plate reader, cherry pick (AID 743444); format: functional;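 also: transfected HEK 293 cells stimulated with alpha-MSH peptide; potency of inhibitors of the alpha-MSH evoked signal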
[23] = HEK293 cell cytotoxicity, dose response, cytotoxicity control, plate reader, cherry-picked samples (AID 743446); format: functional, cell-based
BJ [24] = test: cytotoxicity toward BJ-TERT fibroblasts, dose response, cell-based, RAS-independent, luminescence (AID 1933); format: functional; conditions: Homo sapiens
BJ [25] = test: cells; format: functional, cell-based; conditions: Homo sapiens
[26] = biological target: Luciferin 4-monooxygenase (Photinus pyralis, UniProt P08659); test: firefly luciferase enzyme inhibitors, dose response, biochemical, luminescence (AID 1891)
[27] = Luminescence Cell-Based Dose Confirmation HTS to Identify Inhibitors of Platelet Dense Granule Release. [Related pubchem assays: 1663 (Primary HTS), 1678 (Summary of Project)]; format: functional
BJ [28] = test: cytotoxicity toward BJ-TERT-LT-ST fibroblasts, dose response, cell-based, RAS-independent, luminescence (AID 1935); format: functional; conditions: Homo sapiens;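 also: BJ fibroblasts immortalized with TERT plus LT and ST oncogenes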
[29] = cytotoxicity toward DRD oncogenic fibroblasts, dose response, cell-based, non-viral oncogenic, luminescence (AID 1934); format: functional; conditions: Homo sapiens
CHO-K1 = test: Counterscreen for antagonists of the orexin 1 receptor (OX1R; HCRTR1): Homogeneous time resolved fluorescence (HTRF)-based cell-based dose response assay to identify antagonists of the parental CHO-K1 cell line. [Related pubchem assays (depositor defined):AID434989, AID435008, AID463079, AID485270, AID492963, AID492964, AID492965, AID493232, AID504699, AID504701]; format: functional; conditions: Cricetulus griseus;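 also: potency for inhibition of ATP-stimulated IP1 production as antagonists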
Jurkat = test: antigen receptor-induced NF-kB inhibitors, dose response, Jurkat, luciferase reporter, luminescence, B- and T-cell (AID 489004); format: functional, cell-based; conditions: Homo sapiens;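 also: NF-kB luciferase reporter Jurkat cells stimulated with PMA plus ionomycin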
[30] = Counterscreen for antagonists of the orexin 1 receptor (OX1R; HCRTR1): Fluorescence-based cell-based high throughput dose response assay to identify antagonists of the parental CHO cell line. [Related pubchem assays (depositor defined):AID434989, AID435008, AID463079, AID485270, AID492963, AID492964, AID492965, AID493232, AID504699, AID504701]; format: functional
[31] = cytotoxicity in HEK-293T NF-kB-Luc cells, dose response, cytotoxicity control for B/T-cell NF-kB inhibitor project, cell-based, uHTS hits (AID 489019); format: functional;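 also: IC50 reflects cytotoxicity as loss of cell viability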
[32] = biological target: T2, Orexin/Hypocretin receptor type 1 (Homo sapiens, UniProt O43613); test: Homogeneous Time Resolved Fluorescence (HTRF)-based cell-based high throughput dose response assay for antagonists of the orexin 1 receptor (OX1R; HCRTR1). [Related pubchem assays (depositor defined):AID434989, AID435008, AID463079, AID485270, AID492963, AID492964, AID492965, AID493232, AID504717, AID504718]; format: functional
T2 sequence (O43613 whole entry): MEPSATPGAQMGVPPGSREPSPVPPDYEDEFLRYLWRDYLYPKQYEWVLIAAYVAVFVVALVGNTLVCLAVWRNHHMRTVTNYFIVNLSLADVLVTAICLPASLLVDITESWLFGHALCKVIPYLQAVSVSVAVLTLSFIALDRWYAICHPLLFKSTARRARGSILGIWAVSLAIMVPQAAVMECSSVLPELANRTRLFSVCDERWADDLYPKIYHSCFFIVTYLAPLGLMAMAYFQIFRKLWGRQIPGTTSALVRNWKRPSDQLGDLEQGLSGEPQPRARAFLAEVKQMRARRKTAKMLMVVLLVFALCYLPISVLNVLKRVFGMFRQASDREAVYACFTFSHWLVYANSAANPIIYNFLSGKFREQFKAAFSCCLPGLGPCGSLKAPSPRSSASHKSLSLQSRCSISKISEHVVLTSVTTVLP

[33] = biological target: T2, Orexin/Hypocretin receptor type 1; test: Fluorescence-based cell-based high throughput dose response assay for antagonists of the orexin 1 receptor (OX1R; HCRTR1). [Related pubchem assays (depositor defined):AID434989, AID435008, AID463079, AID485270, AID492963, AID492964, AID492965, AID493232, AID504717, AID504718]; format: functional
BJ [34] = test: cytotoxicity toward Ras-transformed BJeLR fibroblasts, dose response, cell-based, alamar blue fluorescence, cherrypicked samples (AID 2631); format: functional; conditions: Homo sapiens;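 also: confirmatory dose-response assay in RAS-dependent BJ fibroblasts engineered with TERT, LT and ST, with cytotoxicity read by fluorescence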
Vero = test: cells; format: functional, cell-based; conditions: Chlorocebus sabaeus

Sequence of 5-hydroxytryptamine receptor 5A (P47898 whole entry): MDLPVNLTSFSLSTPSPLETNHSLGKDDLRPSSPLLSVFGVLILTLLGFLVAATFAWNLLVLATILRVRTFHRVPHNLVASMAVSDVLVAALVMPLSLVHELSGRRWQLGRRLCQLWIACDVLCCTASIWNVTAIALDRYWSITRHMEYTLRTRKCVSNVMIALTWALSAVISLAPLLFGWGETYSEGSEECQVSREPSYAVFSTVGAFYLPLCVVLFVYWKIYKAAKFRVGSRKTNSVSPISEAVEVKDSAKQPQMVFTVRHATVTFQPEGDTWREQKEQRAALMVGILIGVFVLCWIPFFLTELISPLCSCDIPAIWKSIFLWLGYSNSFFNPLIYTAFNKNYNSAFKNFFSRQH
Sequence of Trypsin (P00761 whole entry): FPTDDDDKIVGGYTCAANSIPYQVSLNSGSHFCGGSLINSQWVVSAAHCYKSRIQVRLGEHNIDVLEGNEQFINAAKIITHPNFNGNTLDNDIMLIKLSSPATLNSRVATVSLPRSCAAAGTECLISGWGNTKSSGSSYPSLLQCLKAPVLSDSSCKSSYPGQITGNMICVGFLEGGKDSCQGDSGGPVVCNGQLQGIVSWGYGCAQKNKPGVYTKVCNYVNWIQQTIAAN
Sequence of Mu-type opioid receptor (P35372 whole entry): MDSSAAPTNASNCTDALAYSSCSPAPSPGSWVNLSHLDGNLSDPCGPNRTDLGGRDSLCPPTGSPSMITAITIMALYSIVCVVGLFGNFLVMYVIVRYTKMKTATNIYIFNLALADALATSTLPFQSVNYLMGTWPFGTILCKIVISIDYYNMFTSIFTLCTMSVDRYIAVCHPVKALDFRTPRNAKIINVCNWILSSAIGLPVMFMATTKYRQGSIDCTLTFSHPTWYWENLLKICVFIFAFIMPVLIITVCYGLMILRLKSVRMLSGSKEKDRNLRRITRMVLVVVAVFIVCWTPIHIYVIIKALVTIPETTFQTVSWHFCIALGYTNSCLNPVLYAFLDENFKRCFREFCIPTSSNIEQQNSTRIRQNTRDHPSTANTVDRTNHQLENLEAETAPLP
Sequence of CAAX prenyl protease 2 (Q9Y256 whole entry): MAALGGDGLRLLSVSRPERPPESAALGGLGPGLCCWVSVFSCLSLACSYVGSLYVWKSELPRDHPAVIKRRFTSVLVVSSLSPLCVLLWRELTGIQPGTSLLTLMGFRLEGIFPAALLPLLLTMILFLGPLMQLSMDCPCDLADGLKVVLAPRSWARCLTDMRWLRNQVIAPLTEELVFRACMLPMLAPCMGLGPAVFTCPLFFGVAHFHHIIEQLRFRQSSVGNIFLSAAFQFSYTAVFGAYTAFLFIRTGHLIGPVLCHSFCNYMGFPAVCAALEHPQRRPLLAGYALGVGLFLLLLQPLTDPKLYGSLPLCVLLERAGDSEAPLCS
Sequence of Delta-type opioid receptor (P41143 whole entry): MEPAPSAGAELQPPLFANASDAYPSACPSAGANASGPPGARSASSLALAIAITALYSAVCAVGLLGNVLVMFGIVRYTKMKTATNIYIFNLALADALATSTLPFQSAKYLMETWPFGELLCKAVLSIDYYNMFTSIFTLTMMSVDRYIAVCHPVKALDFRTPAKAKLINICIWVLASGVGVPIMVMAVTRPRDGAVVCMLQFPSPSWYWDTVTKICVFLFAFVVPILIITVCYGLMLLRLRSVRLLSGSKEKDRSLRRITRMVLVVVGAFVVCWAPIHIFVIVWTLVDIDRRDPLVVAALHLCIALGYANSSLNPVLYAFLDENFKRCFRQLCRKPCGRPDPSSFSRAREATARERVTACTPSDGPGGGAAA
Sequence of Luciferin 4-monooxygenase (P08659 whole entry): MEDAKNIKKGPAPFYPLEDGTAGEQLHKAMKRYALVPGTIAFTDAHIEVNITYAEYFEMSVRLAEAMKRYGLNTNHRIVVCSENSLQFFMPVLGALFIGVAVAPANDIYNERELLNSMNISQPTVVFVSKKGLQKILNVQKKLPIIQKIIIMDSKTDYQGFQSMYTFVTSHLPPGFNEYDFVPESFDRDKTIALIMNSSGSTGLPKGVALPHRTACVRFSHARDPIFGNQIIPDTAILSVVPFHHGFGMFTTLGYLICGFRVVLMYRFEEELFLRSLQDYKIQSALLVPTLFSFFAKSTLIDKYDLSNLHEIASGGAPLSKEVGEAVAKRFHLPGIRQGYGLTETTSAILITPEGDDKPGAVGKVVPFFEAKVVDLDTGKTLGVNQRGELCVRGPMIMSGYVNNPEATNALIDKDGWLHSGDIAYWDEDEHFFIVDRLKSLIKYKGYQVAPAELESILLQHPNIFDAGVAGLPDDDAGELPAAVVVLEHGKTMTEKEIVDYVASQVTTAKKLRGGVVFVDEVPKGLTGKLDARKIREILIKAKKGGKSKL

COc1cccc(Nc2nc(C)nc3c2oc2ccccc23)c1
active: AC50 (Trypsin) 17 µM | AC50 (CAAX prenyl protease 2) 6 µM

O=[N+]([O-])c1ccc(-c2cc[nH]n2)o1
active: EC50 [1] 0.202 µM | AC50 (Escherichia coli [3]) 12.5 µM | AC50 (Escherichia coli [4]) 24 µM
> 60 µM (not active): EC50 [2]

CN(C)CCCN(C(=O)CCc1ccccc1)c1nc2ccc(Br)cc2s1
active: CC50 [5] 15.7 µM | CC50 [6] 17.6 µM | CC50 [7] 13.6 µM | CC50 [8] 10.3 µM | IC50 (cells) 12.7 µM | AC50 (A-375) 18.6 µM
inactive: EC50 (Insulin-degrading enzyme [9]) > 54.7 µM | EC50 (Insulin-degrading enzyme [10]) 29.5 µM | IC50 (HEK293 [11]) 25.4 µM | EC50 (HEK293 [12]) > 55.9 µM

COc1ccc(C(C)NCCC(c2ccc(OC(C)C)cc2)c2ccccc2OC)cc1 (stereo not drawn)
active: EC50 [14] 10.6 µM | EC50 [15] 7.93 µM | AC50 [16] 4.45 µM | AC50 (INS1) 7.14 µM | AC50 [19] 6.71 µM | AC50 [20] 6.89 µM | AC50 [21] 23.2 µM | AC50 [22] 28.8 µM | AC50 [23] 11.8 µM
inactive: EC50 [17] > 92.5 µM | EC50 (Mu-type opioid receptor) > 92.5 µM | EC50 [18] > 92.5 µM
> 120 µM (not active): EC50 [13]

CCn1c(C)nc2cc(-c3nc4n(n3)Cc3ccccc3-4)ccc21
inactive: IC50 (CHO-K1) > 66.2 µM | IC50 [30] > 49.8 µM | IC50 [31] > 80 µM | IC50 [33] 48.1 µM | EC50 (BJ [34]) > 133 µM
active: EC50 (BJ [24]) 2.18 µM | EC50 (BJ [25]) 1.76 µM | EC50 [26] 0.311 µM | EC50 [27] 0.352 µM | EC50 (BJ [28]) 6.25 µM | EC50 [29] 1.71 µM | IC50 (Jurkat) 0.23 µM | IC50 [32] 2.69 µM

Cc1ccc(S(=O)(=O)N2C[C@@H](C)[C@]3(C2)[C@H](O)[C@H](OC(=O)Nc2cccs2)C[C@H]2C(=O)N(c4ccccc4)C(=O)[C@H]23)cc1
active: IC50 (Vero) 22.1 µM
